From patent US20180256668A1, “PHARMACEUTICAL COMPOSITION FOR TREATMENT OF OR REMISSION IN ELDERLY OR TERMINAL CANCER PATIENT” (DELTA-FLY PHARMA, INC., priority 2014, published 2018)

Legend:
[1] = test system: post-surgery recurrence of non-small cell lung cancer; assay: Case of a patient with post-surgery recurrence of non-small cell lung cancer (Example 3); format: in vivo, human; settings: Bestatin 10 mg/day alone every day from Jan-14
Method: The non-small cell lung cancer patient received lung right upper lobectomy, then immunotherapy, but enlargement of the right cervical lymph node was confirmed (September 2012 (Sep-12)). Subsequently, the elevation of CEA levels in peripheral blood was confirmed.
Starting in January 2014 (Jan-14), Bestatin (10 mg/day) was administered alone every day.

[2] = test system: post-surgery liver metastasis of colorectal cancer; assay: Case of a terminal colorectal cancer patient with post-surgery liver metastasis (Example 1); format: in vivo, human
Method: Post-surgery liver metastasis was confirmed in the terminal colorectal cancer patient.
Starting in March 2014 (Mar-14), Bestatin […]) was administered alone every day.

[3] = test system: post-surgery multiple lung metastases of thyroid gland cancer; assay: Case of a patient with post-surgery multiple lung metastases of thyroid gland cancer (Example 2); format: in vivo, human
Method: Multiple lung metastases were confirmed in a thyroid gland cancer patient and the platelet count and the neutrophil count in peripheral blood both increased. In December 2013 (Dec-13), the […] to neutrophil count ratio (NLR) in peripheral blood was more than 5, indicating poor prognosis.
Starting in March 2014 (Mar-14), Bestatin (10 mg/day) was administered alone every day.

[4] = test system: A549 human lung carcinoma; assay: Antitumor effect of Bestatin and gefitinib in A549 cancer-bearing mice (Example 15); format: in vivo, BALB/c nu/nu mice; settings: po, qd, 6 days/week x 3 weeks
Method: • [1] Production of Cancer-Bearing Mouse
A549 human lung carcinoma suspension (5×10^6 cells/100 μL PBS) was subcutaneously inoculated to BALB/c nu/nu mice (female). After cells were transplanted, mice with a tumor volume reaching about 117 mm^3 (on day 15 after the cell transplantation) were used for the following in vivo experiments, • [2] Evaluation of Antitumor Effects Attained by Combination of Bestatin and Gefitinib
Bestatin and gefitinib were respectively administered by the following doses, administration route and schedule to the above A549 cancer-bearing mice.
The antitumor effect was examined based on changes in tumor volume and changes in body weight.
The tumor volume was calculated by the following formula.
Tumor volume (mm^3)=(long side of tumor)×(short side of tumor)^2×0.5
Tumor growth inhibition (TGI) was also calculated from the tumor volume by the following formula.

[5] = Bestatin 10 mg/day alone every day from Mar-14
[6] = Bestatin 10 mg/day alone every day, May-14, two months after start

| SMILES | CEA level in peripheral blood [1] | platelet count in peripheral blood [2, 5] | tumor marker CA19-9 level in peripheral blood [2, 6] | tumor marker CEA level in peripheral blood [2, 6] | CEA level after Bestatin administration was stopped ([2]; administration stopped Jul-14) | platelet count in peripheral blood after Bestatin administration was stopped ([2]; administration stopped Jul-14) | Lymphocyte in peripheral blood ([3]; 2014 Jul. 15 (After administration), Bestatin 10 mg/day alone, before administration 8%) | Neutrophil in peripheral blood ([3]; 2014 Jul. 15 (After administration), Bestatin 10 mg/day alone, before administration 83%) | Leukocyte in peripheral blood ([3]; 2014 Jul. 15 (After administration), Bestatin 10 mg/day alone, before administration (2014 Jan. 10) 9500) | neutrophil count in peripheral blood [3, 5] | platelet count in peripheral blood [3, 5] | TGI (%) On day 40 ([4]; G3: Bestatin 30 mg/kg alone) | TGI (%) On day 40 ([4]; G2: gefitinib 10 mg/kg alone) |
| --- | --- | --- | --- | --- | --- | --- | --- | --- | --- | --- | --- | --- | --- |
| CC(C)C[C@H](NC(=O)[C@@H](O)[C@H](N)Cc1ccccc1)C(=O)O [Bestatin, (2S)-2-[(2S,3R)-3-amino-2-hydroxy-4-phenylbutanoylamino]-4-methylpentanoic acid] | drop | started decreasing | started decreasing | started decreasing | quickly elevated again | quickly elevated again | 22% | 55% | 4900 | drops | drops | 39% | – |
| COc1cc2ncnc(Nc3ccc(F)c(Cl)c3)c2cc1OCCCN1CCOCC1 [gefitinib] | – | – | – | – | – | – | – | – | – | – | – | – | 31% |
